Reference: patent publication US10822317B2, “Methods and compositions for wound healing” (QBiotics Limited, priority 2013, dated 2020)

Tested on: human PBMCs
Assay: Gene expression (Illumina BeadChip) in human PBMCs
Format: cell-based
Settings: 30 ng/mL
Procedure: Human peripheral blood mononuclear cells (PBMCs) were isolated by Ficoll-Paque sedimentation of heparinised blood from a human donor, and cultured in RPMI-1640 10% FCS. Following treatment with Compound 1 at 30 ng/mL, the monolayer was washed once with phosphate buffered saline (PBS) and the cells harvested with sterile scrapers and stored as pellets at −80° C.
RNA was extracted from 30 mg of frozen tumour or 1×10^7 cells using the QiagenRNeasyPlus Mini Kit, according to manufacturer's instructions, then quantitated with a NanoDrop instrument and integrity confirmed on denaturing agarose gels bearing a 1 kb DNA marker and stained with ethidium bromide.
Approximately 500 ng of total unlabelled RNA was adjusted to a final volume of 11 μL with nuclease-free water. The RNA was incubated with 9 μL of the reverse transcriptase master mix (1 μL of T7 Oligo (dT) Primer, 2 μL of 10× first strand buffer, 4 μL of dNTP mix, 1 μL of RNase inhibitor and 1 μL of ArrayScript) at 42° C. for 2 hr. This was followed by the second strand cDNA synthesis step which involved a further incubation at 16° C. for 2 hr with 80 µL of the second strand master mix (63 μL nuclease-free water, 10 μL 10× second strand buffer, 4 μL dNTP mix, […] and 1 μL RNase H). The cDNA was purified by filtering through a cDNA Filter Cartridge with 250 μL of cDNA binding buffer and washing with 500 μL of the wash buffer provided in the kit. Purified cDNA was eluted with 20 μL of 55° C. nuclease-free water. Each cDNA sample was incubated with 7.5 μL of the IVT master mix (2.5 μL of T7 10× reaction buffer, 2.5 μL of T7 enzyme mix and 2.5 μL biotin-NTP mix) at 37° C. for 16 hr. The reaction was stopped with the addition of 75 μL of nuclease-free water to each cRNA sample. The biotinylated, amplified RNA was purified by filtering the cRNA samples through cRNA Filter Cartridges with 350 μL of cRNA binding buffer and 250 μL of 100% ethanol mixed together prior to loading onto the filters. The cRNA filter cartridges with attached RNA were then washed with 650 μL of wash buffer before eluting purified cRNA with 200 μL of 55° C. nuclease-free water.
The cRNA samples were heated at 65° C. for 5 min and collected by pulse centrifugation. After heating at 65 degrees for 5 min, approximately 750 ng of the cRNA sample was aliquoted into separate tubes to which were added ˜5 μL of RNase-free water and 10 μL of Hyb Mix. Approximately 15 μL of the prepared cRNA mix was loaded onto the Illumina Expression BeadChips. Subsequent steps of hybridisation and washing were carried out according to the Whole-Genome Gene Expression Direct Hybridization Assay Guide supplied by Illumina.
The Human HT-12 v4 Expression BeadChips cover more than 47,000 transcripts and known splice variants across the human transcriptome. The MouseRef-8 v2.0 Expression BeadChips cover approximately 25,600 well-annotated RefSeq (Reference Sequence) transcripts, comprising over 19,000 unique genes.
BeadChips were read by the iScan System, and transferred via GenomeStudio into GeneSpring GX v12.5 (Agilent Technologies, Santa Clara, Calif., USA). The expression values were normalized using quantile normalization with default settings. The entities were filtered based on the detection score calculated by GenomeStudio where p≤0.05 was considered significant.
Human peripheral blood mononuclear cells (PBMCs) are rich in lymphocytes and macrophage precursors (monocytes) involved in the production of cytokines and tissue remodelling enzymes relevant to the wound healing process. […] It should therefore be noted that the genes shown in Table 14 illustrate the range of relevant molecules regulated by Compound 1 in a mixed lymphoid population in vitro, without specifying the order of tissue-specific expression in vivo.

With `CC=C(C)C(=O)OC1C(C)C2(O)C(C3OC3(CO)C(O)C3(O)C(=O)C(C)=CC32)C2C(C)(C)C12OC(=O)C(C)CC` (centres unmarked) [Compound 1, 12-tigloyl-13-(2-methylbutanoyl)-6,7-epoxy-4,5,9,12,13,20-hexahydroxy-1-tigliaen-3-one] the “CCL3L1: Direction of regulation” value (4 h) was “Up”, the “CCL7: Direction of regulation” value (4 h) was “Up” and the “CXCL2: Direction of regulation” value (4 h) was “Up”. The “GM-CSF: Direction of regulation” value (4 h) was “Up”, the “HBEGF: Direction of regulation” value (4 h) was “Up” and the “KLF10: Direction of regulation” value (4 h) was “Up”. For the same compound, the “MMP1: Direction of regulation” value (4 h) was “Up”, the “MMP7: Direction of regulation” value (4 h) was “Up” and the “MMP10: Direction of regulation” value (4 h) was “Up”. The “MMP19: Direction of regulation” value (4 h) was “Up”, the “TGM3: Direction of regulation” value (4 h) was “Up” and the “THBS1: Direction of regulation” value (4 h) was “Down”. For the same compound, the “THBS1: Fold change in expression” value (4 h, Down) was −47.8 fold, the “CCL3L1: Fold change in expression” value (4 h, Up) was 5.3 fold and the “CCL7: Fold change in expression” value (4 h, Up) was 9.4 fold. For the same compound, the “CXCL2: Fold change in expression” value (4 h, Up) was 3.5 fold, the “GM-CSF: Fold change in expression” value (4 h, Up) was 4.3 fold and the “HBEGF: Fold change in expression” value (4 h, Up) was 2.7 fold. The “KLF10: Fold change in expression” value (4 h, Up) was 5.9 fold, the “MMP1: Fold change in expression” value (4 h, Up) was 3.1 fold and the “MMP7: Fold change in expression” value (4 h, Up) was 3.5 fold. For the same compound, the “MMP10: Fold change in expression” value (4 h, Up) was 3.2 fold, the “MMP19: Fold change in expression” value (4 h, Up) was 11.6 fold and the “TGM3: Fold change in expression” value (4 h, Up) was 2.3 fold. For the same compound, the “CCL1: Direction of regulation” value (24 h) was “Up”, the “CCL3: Direction of regulation” value (24 h) was “Up” and the “CCL3L1: Direction of regulation” value (24 h) was “Up”. For the same compound, the “CCL7: Direction of regulation” value (24 h) was “Up”, the “CSF1: Direction of regulation” value (24 h) was “Up” and the “CXCL1: Direction of regulation” value (24 h) was “Up”. For the same compound, the “CXCL2: Direction of regulation” value (24 h) was “Up”, the “CXCL5: Direction of regulation” value (24 h) was “Up” and the “CXCL7: Direction of regulation” value (24 h) was “Up”. The “CXCL13: Direction of regulation” value (24 h) was “Up”, the “GM-CSF: Direction of regulation” value (24 h) was “Up” and the “HBEGF: Direction of regulation” value (24 h) was “Up”. The “IL1α: Direction of regulation” value (24 h) was “Up”, the “IL1β: Direction of regulation” value (24 h) was “Up” and the “IL6: Direction of regulation” value (24 h) was “Up”. For the same compound, the “IL10: Direction of regulation” value (24 h) was “Up”, the “IL24: Direction of regulation” value (24 h) was “Up” and the “KLF10: Direction of regulation” value (24 h) was “Up”. The “MMP1: Direction of regulation” value (24 h) was “Up”, the “MMP7: Direction of regulation” value (24 h) was “Up” and the “MMP9: Direction of regulation” value (24 h) was “Down”. For the same compound, the “MMP10: Direction of regulation” value (24 h) was “Up”, the “MMP19: Direction of regulation” value (24 h) was “Up” and the “TGM2: Direction of regulation” value (24 h) was “Up”. The “TGM3: Direction of regulation” value (24 h) was “Up”, the “TGM5: Direction of regulation” value (24 h) was “Down” and the “THBS1: Direction of regulation” value (24 h) was “Down”. For the same compound, the “TIMP2: Direction of regulation” value (24 h) was “Down”, the “MMP9: Fold change in expression” value (24 h, Down) was −22.9 fold and the “TGM5: Fold change in expression” value (24 h, Down) was −3.3 fold. The “THBS1: Fold change in expression” value (24 h, Down) was −101.5 fold, the “TIMP2: Fold change in expression” value (24 h, Down) was −10.9 fold and the “CCL1: Fold change in expression” value (24 h, Up) was 39.8 fold. For the same compound, the “CCL3: Fold change in expression” value (24 h, Up) was 56.9 fold, the “CCL3L1: Fold change in expression” value (24 h, Up) was 72.3 fold and the “CCL7: Fold change in expression” value (24 h, Up) was 54.5 fold. For the same compound, the “CSF1: Fold change in expression” value (24 h, Up) was 5.1 fold, the “CXCL1: Fold change in expression” value (24 h, Up) was 15.5 fold and the “CXCL2: Fold change in expression” value (24 h, Up) was 73.5 fold. For the same compound, the “CXCL5: Fold change in expression” value (24 h, Up) was 8.1 fold, the “CXCL7: Fold change in expression” value (24 h, Up) was 17.5 fold and the “CXCL13: Fold change in expression” value (24 h, Up) was 2.2 fold. The “GM-CSF: Fold change in expression” value (24 h, Up) was 34.6 fold, the “HBEGF: Fold change in expression” value (24 h, Up) was 5.1 fold and the “IL1α: Fold change in expression” value (24 h, Up) was 14.6 fold. For the same compound, the “IL1β: Fold change in expression” value (24 h, Up) was 15.4 fold, the “IL6: Fold change in expression” value (24 h, Up) was 33.1 fold and the “IL10: Fold change in expression” value (24 h, Up) was 2.1 fold. The “IL24: Fold change in expression” value (24 h, Up) was 4.6 fold, the “KLF10: Fold change in expression” value (24 h, Up) was 9.3 fold and the “MMP1: Fold change in expression” value (24 h, Up) was 4.2 fold. For the same compound, the “MMP7: Fold change in expression” value (24 h, Up) was 7.4 fold, the “MMP10: Fold change in expression” value (24 h, Up) was 52 fold and the “MMP19: Fold change in expression” value (24 h, Up) was 2.6 fold. For the same compound, the “TGM2: Fold change in expression” value (24 h, Up) was 12.2 fold, the “TGM3: Fold change in expression” value (24 h, Up) was 28.4 fold and the “CCL1: Direction of regulation” value (96 h) was “Up”. The “CCL3L1: Direction of regulation” value (96 h) was “Up”, the “CCL7: Direction of regulation” value (96 h) was “Up” and the “CXCL5: Direction of regulation” value (96 h) was “Up”. The “CXCL7: Direction of regulation” value (96 h) was “Up”, the “CXCL13: Direction of regulation” value (96 h) was “Up” and the “GM-CSF: Direction of regulation” value (96 h) was “Up”. For the same compound, the “MMP7: Direction of regulation” value (96 h) was “Up”, the “TGM2: Direction of regulation” value (96 h) was “Up” and the “CCL1: Fold change in expression” value (96 h, Up) was 42.6 fold. For the same compound, the “CCL3L1: Fold change in expression” value (96 h, Up) was 4.2 fold, the “CCL7: Fold change in expression” value (96 h, Up) was 4.8 fold and the “CXCL5: Fold change in expression” value (96 h, Up) was 15.1 fold. For the same compound, the “CXCL7: Fold change in expression” value (96 h, Up) was 37.4 fold, the “CXCL13: Fold change in expression” value (96 h, Up) was 23.5 fold and the “GM-CSF: Fold change in expression” value (96 h, Up) was 6 fold. The “MMP7: Fold change in expression” value (96 h, Up) was 117.3 fold and the “TGM2: Fold change in expression” value (96 h, Up) was 4.4 fold.
